From patent US20250351832A1, “PHYTOCHEMICALS AS BIOPESTICIDES AND BIOSTIMULANTS” (KAY BEE BIO ORGANICS PVT. LTD., priority 2024, published 2025)
Read-outs that look alike come from different tables or passages of the source.

Assays:
Tomato thrips = experiment: In vitro bio-efficacy, Tomato thrips (Ex. 57); conditions: Dose 0.8 ml/lit
Alternaria alternata [1] = experiment: In vitro poisoned food technique against fungus (Ex. 20); assay type: cell-based
Alternaria alternata [2] = experiment: Alternaria leaf spot/blight on inoculated tomato plants (Ex. 28); assay type: in vivo; conditions: tomato plants, Alternaria alternata; after 7 days; dose 1 ml/gm/lit
tomato seedlings = experiment: Response of tomato plants, greenhouse growth (Ex. 30); assay type: in vivo; conditions: tomato seedlings, dose 1 ml/gm/lit; for Plant Height 5th Day / Stem Girth 5th Day / CCI 5th Day: 5th day after application; for Plant Height 10th Day / Stem Girth 10th Day / CCI 10th Day: 10th day after application; for Plant Height % Increase over pre on 10th Day / Stem Girth % Increase over pre on 10th Day / CCI % Increase over pre on 10th Day / Root Length (cm) 10th Day / Root Length % Increase over control: 10th day; for Root Length % Increase over control: vs water control
chili seedlings = experiment: Response of chili plants, greenhouse growth (Ex. 31); assay type: in vivo; conditions: chili seedlings, dose 1 ml/gm/lit; for CCI 5th Day / Plant Height (cm) 5th Day: 5th day after application; for CCI 10th Day / Plant Height (cm) 10th Day: 10th day after application; for CCI % Increase over pre on 10th Day / Plant Height % Increase over pre on 10th Day / Root Lenght (cm) 10th Day / Stem Girth % Increase over pre on 10th Day / Root Lenght % Increase over control: 10th day; for Root Lenght % Increase over control: vs water control
Aphid [3] = conditions: for Total No. of dead insect at 48 Hrs.: 10 insects/treatment, 4 replications, cotton leaves
Mite [4] = conditions: for Total No. of dead insect at 48 Hrs.: 10 insects/treatment, 4 replications, okra leaves
Mealy Bug [5] = conditions: Mealy Bug on cotton leaves, dose 1 ml/gm/lit., 48 Hrs.; for Total No. of dead insect at 48 Hrs.: 10 insects/treatment, 4 replications; for % Corrected Mortality at 48 Hrs.: corrected for water control
Helicoverpa armigera [6] = conditions: Helicoverpa armigera on okra fruits, dose 1 ml/gm/lit., 72 Hrs.; for Total No. of dead insect at 72 Hrs.: 10 insects/treatment, 4 replications; for % Corrected Mortality at 72 Hrs.: corrected for water control
Spodoptera litura [7] = conditions: Spodoptera litura on castor leaves; dose 1 ml/gm/lit.; 10 insects/treatment; 72 hrs after application
Thrips [8] = conditions: Thrips on cotton leaves; dose 1 ml/gm/lit.; 10 insects/treatment; 48 hrs after application
Aphid [9] = conditions: Aphids on cotton plants, green house; dose 1 ml/gm/lit.; 10 insects/plant, 10 plants/treatment; 48 hrs
Mite [10] = conditions: mite on okra plants, green house, dose 1 ml/gm/lit. spray; for % Mortality at 48 Hrs. / Total No. of dead insect at 48 Hrs.: 48 hrs after application; for % Corrected Mortality at 48 Hrs.: corrected for water control
Mealy Bug [11] = conditions: mealy bug on cotton plants, green house, dose 1 ml/gm/lit. spray; for % Mortality at 48 Hrs. / Total No. of dead insect at 48 Hrs.: 48 hrs after application; for % Corrected Mortality at 48 Hrs.: corrected for water control
Helicoverpa armigera [12] = conditions: Helicoverpa armigera 3rd instar on chickpea plants, dose 1 ml/gm/lit. spray; for % Mortality at 72 Hrs.: 72 hrs after application; for % Corrected Mortality at 72 Hrs.: corrected for water control
Spodoptera litura [13] = conditions: Spodoptera litura 3rd instar on cabbage plants, dose 1 ml/gm/lit. spray; for % Mortality at 72 Hrs.: 72 hrs after application; for % Corrected Mortality at 72 Hrs.: corrected for water control
Thrips [14] = conditions: thrips on cotton plants, greenhouse, dose 1 ml/gm/lit. spray; for % Mortality at 48 Hrs. / Total No. of dead insect at 48 Hrs.: 48 hrs after application; for % Corrected Mortality at 48 Hrs.: corrected for water control
[15] = cited from earlier work
Spodoptera litura [16] = experiment: whole plant or invertebrate; conditions: 72 h
Thrips [17] = experiment: whole plant or invertebrate; conditions: in Gossypium hirsutum, 48 h
Aphid [18] = experiment: whole plant or invertebrate; conditions: 48 h
[19] = poisoned food technique, PDA medium, dose 1 ml/gm/lit., after seven days
[20] = Table 13, descriptive, no test described
[21] = read-out: % Corrected Mortality at 72 Hrs.
[22] = read-out: % Mortality at 72 Hrs.
[23] = read-out: % Corrected Mortality at 48 Hrs.
[24] = read-out: % Mortality at 48 Hrs.

Compound: CON=CNC(=O)c1ccc(C2=NOC(c3cc(Cl)cc(Cl)c3)(C(F)(F)F)C2)cc1C (stereo not shown) [Fluxametamide]
- % Corrected Mortality at 72 hrs. (Tomato thrips): 57.89%
- % Mortality at 72 hrs. (Tomato thrips): 60.0%
- Total no of dead insects at 72 hrs. (Tomato thrips): 24.0

Compound: Cc1ccc(C(C)C)c(O)c1 [Thymol]
- Mean colony Diameter (mm) (Alternaria alternata [1]; [19]): 51.50 mm
- inhibition of growth at 1 mL or g/L (Alternaria alternata [1]; poisoned food technique, PDA medium, dose 1 ml/gm/lit., after seven days, vs untreated control, read-out: % Inhibition of growth): 41.5%
- % Disease reduction over Control (Alternaria alternata [2]): 61.16%
- Plant Height 5th Day (tomato seedlings): 6.81 cm
- Stem Girth 5th Day (tomato seedlings): 1.90 mm
- Plant Height 10th Day (tomato seedlings): 7.62 cm
- Stem Girth 10th Day (tomato seedlings): 2.53 mm
- Plant Height % Increase over pre on 10th Day (tomato seedlings): 30.48%
- Stem Girth % Increase over pre on 10th Day (tomato seedlings): 61.42%
- CCI 5th Day (tomato seedlings): 14.12
- CCI % Increase over pre on 10th Day (tomato seedlings): 22.87%
- Root Length (cm) 10th Day (tomato seedlings): 4.82 cm
- CCI 10th Day (tomato seedlings): 15.42
- Root Length % Increase over control (tomato seedlings): 44.89%
- CCI 5th Day (chili seedlings): 13.80
- Plant Height (cm) 5th Day (chili seedlings): 6.13 cm
- CCI % Increase over pre on 10th Day (chili seedlings): 75.74%
- Plant Height % Increase over pre on 10th Day (chili seedlings): 58.04%
- Root Lenght (cm) 10th Day (chili seedlings): 3.77 cm
- Stem Girth % Increase over pre on 10th Day (chili seedlings): 51.36%
- CCI 10th Day (chili seedlings): 14.85
- Plant Height (cm) 10th Day (chili seedlings): 7.27 cm
- Root Lenght % Increase over control (chili seedlings): 37.87%
- Total No. of dead insect at 48 Hrs. (Aphid [3]; Dose 1 ml/gm/lit.): 6.25
- % Corrected Mortality at 48 Hrs. (Aphid [3]; in vivo): 57.14%
- Total No. of dead insect at 48 Hrs. (Mite [4]; Dose 1 ml/gm/lit.): 6.00
- % Corrected Mortality at 48 Hrs. (Mite [4]; in vivo): 56.76%
- % Mortality at 48 Hrs. (Mite [4]; in vivo): 60.00%
- Total No. of dead insect at 48 Hrs. (Mealy Bug [5]): 5.50
- % Mortality at 48 Hrs. (Mealy Bug [5]): 55.00%
- % Corrected Mortality at 48 Hrs. (Mealy Bug [5]): 52.63%
- Total No. of dead insect at 72 Hrs. (Helicoverpa armigera [6]): 6.50
- % Mortality at 72 Hrs. (Helicoverpa armigera [6]): 65.00%
- % Corrected Mortality at 72 Hrs. (Helicoverpa armigera [6]): 65.00%
- Total No. of dead insect at 72 Hrs. (Spodoptera litura [7]): 6.75
- Total No. of dead insect at 48 Hrs. (Thrips [8]): 3.25
- Total No. of dead insect at 48 Hrs. (Aphid [9]): 62.50
- % Mortality at 48 Hrs. (Mite [10]): 62.50%
- Total No. of dead insect at 48 Hrs. (Mite [10]): 62.50
- % Corrected Mortality at 48 Hrs. (Mite [10]): 60.53%
- % Mortality at 48 Hrs. (Mealy Bug [11]): 55.00%
- Total No. of dead insect at 48 Hrs. (Mealy Bug [11]): 55.00
- % Corrected Mortality at 48 Hrs. (Mealy Bug [11]): 50.00%
- % Mortality at 72 Hrs. (Helicoverpa armigera [12]): 62.50%
- % Corrected Mortality at 72 Hrs. (Helicoverpa armigera [12]): 62.50%
- % Mortality at 72 Hrs. (Spodoptera litura [13]): 65.00%
- % Corrected Mortality at 72 Hrs. (Spodoptera litura [13]): 63.16%
- % Mortality at 48 Hrs. (Thrips [14]): 35.00%
- Total No. of dead insect at 48 Hrs. (Thrips [14]): 35.00
- % Corrected Mortality at 48 Hrs. (Thrips [14]): 27.78%
- Antioxidant Activity - Mode of action [15, 20]: Antioxidant and food
- Bactericidal Activity - Mode of action [15, 20]: Growth inhibition
- Insecticidal Activities - Mode of action [15, 20]: Inhibited the growth,
- Virucidal Activity - Mode of action [15, 20]: Inhibit virus replication
- Phytotonic Effect ([15]; Table 13, effect on plants, descriptive): Improves
- mortality at 1 mL or g/L (Spodoptera litura [16]; [21]): 65.8%
- mortality at 1 mL or g/L (Spodoptera litura [16]; [22]): 67.5%
- mortality at 1 mL or g/L (Thrips [17]; [23]): 22.9%
- mortality at 1 mL or g/L (Thrips [17]; [24]): 32.5%
- mortality at 1 mL or g/L (Aphid [18]; [23]): 55.9%
- mortality at 1 mL or g/L (Aphid [18]; [24]): 62.5%

Compound: C/C=C\c1cc(OC)c(OC)cc1OC [β-Asarone]
- inhibition of growth at 1 mL or g/L (Alternaria alternata [1]; […]): 54%
- Mean colony Diameter (mm) (Alternaria alternata [1]; [19]): 40.50 mm
- % Disease reduction over Control (Alternaria alternata [2]): 64.46%
- Plant Height 5th Day (tomato seedlings): 6.72 cm
- Stem Girth 5th Day (tomato seedlings): 1.72 mm
- Plant Height 10th Day (tomato seedlings): 7.24 cm
- Stem Girth 10th Day (tomato seedlings): 2.45 mm
- Plant Height % Increase over pre on 10th Day (tomato seedlings): 27.69%
- Stem Girth % Increase over pre on 10th Day (tomato seedlings): 56.32%
- CCI 5th Day (tomato seedlings): 13.45
- CCI % Increase over pre on 10th Day (tomato seedlings): 29.08%
- Root Length (cm) 10th Day (tomato seedlings): 4.43 cm
- CCI 10th Day (tomato seedlings): 14.56
- Root Length % Increase over control (tomato seedlings): 33.31%
- CCI 5th Day (chili seedlings): 9.58
- Plant Height (cm) 5th Day (chili seedlings): 5.70 cm
- CCI % Increase over pre on 10th Day (chili seedlings): 40.02%
- Plant Height % Increase over pre on 10th Day (chili seedlings): 51.59%
- Root Lenght (cm) 10th Day (chili seedlings): 3.17 cm
- Stem Girth % Increase over pre on 10th Day (chili seedlings): 40.46%
- CCI 10th Day (chili seedlings): 12.49
- Plant Height (cm) 10th Day (chili seedlings): 7.61 cm
- Root Lenght % Increase over control (chili seedlings): 16.00%
- Total No. of dead insect at 48 Hrs. (Aphid [3]; Dose 1 ml/gm/lit.): 7.25
- % Corrected Mortality at 48 Hrs. (Aphid [3]; Dose 1 ml/gm/lit., 48 hrs): 68.57%
- % Mortality at 48 Hrs. (Aphid [3]; Dose 1 ml/gm/lit., 48 hrs): 72.50%
- Total No. of dead insect at 48 Hrs. (Mite [4]; Dose 1 ml/gm/lit.): 2.50
- % Corrected Mortality at 48 Hrs. (Mite [4]; Dose 1 ml/gm/lit., 48 hrs): 18.92%
- % Mortality at 48 Hrs. (Mite [4]; Dose 1 ml/gm/lit., 48 hrs): 25.00%
- Total No. of dead insect at 48 Hrs. (Mealy Bug [5]): 3.00
- % Mortality at 48 Hrs. (Mealy Bug [5]): 30.00%
- % Corrected Mortality at 48 Hrs. (Mealy Bug [5]): 26.32%
- Total No. of dead insect at 72 Hrs. (Helicoverpa armigera [6]): 5.00
- % Mortality at 72 Hrs. (Helicoverpa armigera [6]): 50.00%
- % Corrected Mortality at 72 Hrs. (Helicoverpa armigera [6]): 50.00%
- Total No. of dead insect at 72 Hrs. (Spodoptera litura [7]): 6.00
- Total No. of dead insect at 48 Hrs. (Thrips [8]): 6.75
- Total No. of dead insect at 48 Hrs. (Aphid [9]): 70.00
- % Mortality at 48 Hrs. (Mite [10]): 22.50%
- Total No. of dead insect at 48 Hrs. (Mite [10]): 22.50
- % Corrected Mortality at 48 Hrs. (Mite [10]): 18.42%
- % Mortality at 48 Hrs. (Mealy Bug [11]): 35.00%
- Total No. of dead insect at 48 Hrs. (Mealy Bug [11]): 35.00
- % Corrected Mortality at 48 Hrs. (Mealy Bug [11]): 27.78%
- % Mortality at 72 Hrs. (Helicoverpa armigera [12]): 52.50%
- % Corrected Mortality at 72 Hrs. (Helicoverpa armigera [12]): 52.50%
- % Mortality at 72 Hrs. (Spodoptera litura [13]): 55.00%
- % Corrected Mortality at 72 Hrs. (Spodoptera litura [13]): 52.63%
- % Mortality at 48 Hrs. (Thrips [14]): 65.00%
- Total No. of dead insect at 48 Hrs. (Thrips [14]): 65.00
- % Corrected Mortality at 48 Hrs. (Thrips [14]): 61.11%
- Antifungal Activity - Mode of action [15, 20]: Completely inhibited
- Insecticidal Activities - Mode of action [15, 20]: Reductions in oviposition
- Nematicidal Activity - Mode of action [15, 20]: Act as potent nematicide
- mortality at 1 mL or g/L (Spodoptera litura [16]; [21]): 57.9%
- mortality at 1 mL or g/L (Spodoptera litura [16]; [22]): 60%
- mortality at 1 mL or g/L (Thrips [17]; [23]): 62.9%
- mortality at 1 mL or g/L (Thrips [17]; [24]): 67.5%
- mortality at 1 mL or g/L (Aphid [18]; [23]): 64.7%
- mortality at 1 mL or g/L (Aphid [18]; [24]): 70%
